Results as given in US10221129B2, “Inhibitors of human immunodeficiency virus replication” (ViiV HEALTHCARE UK (NO.5) LIMITED, priority 2015, dated 2019).

What was measured:
[1] = Compound cytotoxicity, XTT-based colorimetric assay; type: cell-based; details: human, uninfected MT2 cells, day 4, XTT
Summary of the method: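 Run under the antiviral-assay protocol but without virus. Viability was read on day 4 and CC50 values were derived from the readout.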

[2] = system: recombinant NL4-3 virus (nef section replaced with Renilla luciferase gene) in MT-2 cells; experiment: HIV cell culture assay (antiviral activity, luciferase readout); type: cell-based
Summary of the method: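 Serial compound dilutions tested in MT-2 cells infected for 4-5 days with 293T-derived NL4-3 virus carrying Renilla luciferase in place of part of nef. Antiviral activity quantified as luciferase activity, read with a live-cell substrate.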

[3] = Renilla, NL43, MT-2 cells infected for 4-5 days with recombinant NL4-3 Renilla luciferase virus

Compound | CC50 at 4 days [1] | EC50 [2, 3] | EC50 ([2]; MT-2 cells infected for 4-5 days with recombinant NL4-3 Renilla luciferase virus)
CCc1ccc(N(C)C(=O)[C@H](Cc2cc(F)cc(F)c2)NC(=O)NS(=O)(=O)N(C)C)cn1 [GW-17] | > 100000 nM | 100 nM | 
CN(C(=O)[C@H](Cc1cc(F)cc(F)c1)NC(=O)NS(=O)(=O)N1CCC(Cc2ccccc2)CC1)c1ccc2scnc2c1 [CA-133] | 86400 nM | 720 nM | 
COc1ccc(N(C)C(=O)[C@H](Cc2cc(F)cc(F)c2)NC(=O)NS(=O)(=O)N2CCc3cccnc32)cc1 [BB-31] | > 33300 nM | 10 nM | 
CCN(c1ccccc1)S(=O)(=O)NC(=O)N[C@@H](Cc1ccccc1)C(=O)N(C)c1ccc(OC)cc1 [CA-23] | > 100000 nM | 60 nM | 
CN(C(=O)[C@H](Cc1cc(F)cc(F)c1)NC(=O)NS(=O)(=O)N1CCc2ccncc21)c1ccc2scnc2c1 [BB-9] | > 100000 nM | 410 nM | 
COc1ccc(N(C)C(=O)[C@H](Cc2ccccc2)NC(=O)NS(=O)(=O)NCc2cccc(F)c2)cc1 [JB-57] | > 100000 nM | 6430 nM | 
Cc1ccc2c(n1)N(S(=O)(=O)NC(=O)N[C@@H](Cc1cc(F)cc(F)c1)C(=O)N(C)c1ccc3scnc3c1)CCC2 [VN-12] | > 50000 nM | 10 nM | 
CN(C(=O)[C@H](Cc1ccccc1)NC(=O)NS(=O)(=O)N1CCc2cccnc21)c1ccc2scnc2c1 [ZY-2] | > 53000 nM | 50 nM | 
COc1ccc(N(C)C(=O)[C@H](Cc2ccccc2)NC(=O)NS(=O)(=O)N(C)c2cccc(OC)c2)cc1 [JB-34] | > 100000 nM | 80 nM | 
COc1cccc(N(C)S(=O)(=O)NC(=O)N[C@@H](Cc2cc(F)cc(F)c2)C(=O)N(C)c2ccc3scnc3c2)c1 [CA-119] | > 33300 nM | 60 nM | 
COc1ccc(N(C)C(=O)[C@H](Cc2ccccc2)NC(=O)NS(=O)(=O)NCc2ccc3nc(C)[nH]c3c2)cc1 [JB-54] | > 100000 nM | 12000 nM | 
COc1ccc(N(C)C(=O)[C@H](Cc2ccccc2)NC(=O)NS(=O)(=O)Nc2cc(C)cc(C)c2)cc1 [CA-14] | > 33300 nM | 120 nM | 
CC(C)NS(=O)(=O)NC(=O)N[C@@H](Cc1cc(F)cc(F)c1)C(=O)N(C)c1ccc2scnc2c1 [CA-136] | > 100000 nM | 60 nM | 
CN(C(=O)[C@H](Cc1cc(F)cc(F)c1)NC(=O)NS(=O)(=O)N1CCC(c2ccccc2)CC1)c1ccc2scnc2c1 [CA-156] | 99200 nM | 8320 nM | 
COc1ccc(N(C)C(=O)[C@H](Cc2ccccc2)NC(=O)NS(=O)(=O)NC(C)c2ncnn2C)cc1 (mixture of isomers) [JB-68] | > 100000 nM | 2370 nM | 
CN(C(=O)[C@H](Cc1cc(F)cc(F)c1)NC(=O)NS(=O)(=O)N1CCCCC1)c1ccc2scnc2c1 [VN-24] | > 100000 nM | 90 nM | 
CCc1ccc(N(C)C(=O)[C@H](Cc2cc(F)cc(F)c2)NC(=O)NS(=O)(=O)N2CCc3cccnc32)cn1 [GW-3] | > 100000 nM | 20 nM | 
CC(C)c1ccc(N(C)C(=O)[C@H](Cc2cc(F)cc(F)c2)NC(=O)NS(=O)(=O)N2CCc3cccnc32)cn1 [BB-18] | > 100000 nM | 10 nM | 
CN(C)C(=O)C1Cc2cccnc2N1S(=O)(=O)NC(=O)N[C@@H](Cc1cc(F)cc(F)c1)C(=O)N(C)c1ccc2scnc2c1 (single isomer, unassigned) [BB-28] | > 100000 nM |  | 6050 nM
CCCNS(=O)(=O)NC(=O)N[C@@H](Cc1cc(F)cc(F)c1)C(=O)N(C)c1ccc2scnc2c1 [CA-146] | > 100000 nM | 50 nM | 
CN(C(=O)[C@H](Cc1cc(F)cc(F)c1)NC(=O)NS(=O)(=O)N1CCNC(=O)C1)c1ccc2scnc2c1 [CA-151] | > 100000 nM | 1070 nM | 

Compound | CC50 at 4 days [1] | EC50 [2, 3] | EC50 ([2]; MT-2 cells infected for 4-5 days with recombinant NL4-3 Renilla luciferase virus)
COc1ccc(N(C)C(=O)[C@H](Cc2ccccc2)NC(=O)NS(=O)(=O)Nc2cccc(C(C)(C)C)c2)cc1 [CA-41] | > 33300 nM | 260 nM | 
COc1ccc(N(C)S(=O)(=O)NC(=O)N[C@@H](Cc2cc(F)cc(F)c2)C(=O)N(C)c2ccc3scnc3c2)cn1 [CA-118] | > 100000 nM | 160 nM | 
COc1ccc(N(C)C(=O)[C@H](Cc2ccccc2)NC(=O)NS(=O)(=O)N(C)Cc2n[nH]c(=O)[nH]2)cc1 [JB-69] | > 100000 nM | 3690 nM | 
COc1ccc(N(C)C(=O)[C@H](Cc2ccccc2)NC(=O)NS(=O)(=O)NCC(=O)N(C)C)cc1 [CA-52] | > 100000 nM | 910 nM | 
COc1ccc(N(C)C(=O)[C@H](Cc2ccccc2)NC(=O)NS(=O)(=O)Nc2ccccc2C(F)(F)F)cc1 [CA-60] | > 100000 nM | 870 nM | 
CCN(CC)S(=O)(=O)NC(=O)N[C@@H](Cc1cc(F)cc(F)c1)C(=O)N(C)c1ccc(OC(F)F)cc1 [BB-36] | > 100000 nM | 160 nM | 
COc1ccc(N(C)C(=O)[C@H](Cc2ccccc2)NC(=O)NS(=O)(=O)Nc2ccc(C(C)C)cc2)cc1 [CA-21] | > 100000 nM | 80 nM | 
CN(C(=O)[C@H](Cc1cc(F)cc(F)c1)NC(=O)NS(=O)(=O)NCc1ccccn1)c1ccc2scnc2c1 [CA-134] | > 100000 nM | 430 nM | 
CN(C(=O)[C@H](Cc1cc(F)cc(F)c1)NC(=O)NS(=O)(=O)N1CC(F)(F)C1)c1ccc2scnc2c1 [CA-130] | > 100000 nM | 450 nM | 
COc1ccc(N(C)C(=O)[C@H](Cc2ccccc2)NC(=O)NS(=O)(=O)NCc2cc(C)on2)cc1 [JB-59] | > 100000 nM | 1860 nM | 
COc1ccc(N(C)C(=O)[C@H](Cc2ccccc2)NC(=O)NS(=O)(=O)Nc2ccccc2)cc1 [JB-4] | > 100000 nM | 140 nM | 
CCN(c1cccnc1)S(=O)(=O)NC(=O)N[C@@H](Cc1cc(F)cc(F)c1)C(=O)N(C)c1ccc2scnc2c1 [CA-121] | 7300 nM | 990 nM | 
CN(C(=O)[C@H](Cc1cc(F)cc(F)c1)NC(=O)NS(=O)(=O)N1CCCc2ccccc21)c1ccc2scnc2c1 [VN-5] | 95900 nM | 40 nM | 
CN(C(=O)[C@H](Cc1cc(F)cc(F)c1)NC(=O)NS(=O)(=O)N1CCc2cccnc21)c1ccc(C(F)F)nc1 [GW-12] | > 100000 nM | 120 nM | 
Cc1ccc(N(C)C(=O)[C@H](Cc2cc(F)cc(F)c2)NC(=O)NS(=O)(=O)N2CCc3cncnc32)cc1F [BB-14] | 93100 nM | 20 nM | 
COc1ccc(N(C)C(=O)[C@H](Cc2ccccc2)NC(=O)NS(=O)(=O)Nc2cc(F)cc(F)c2)cc1 [JB-46] | > 100000 nM | 80 nM | 
COc1ccc(N(C)C(=O)[C@H](Cc2ccccc2)NC(=O)NS(=O)(=O)Nc2ccc(Cl)cc2)cc1 [JB-22] | > 100000 nM | 70 nM | 
CC(=O)N1CCN(S(=O)(=O)NC(=O)N[C@@H](Cc2cc(F)cc(F)c2)C(=O)N(C)c2ccc3scnc3c2)CC1 [CA-148] | > 100000 nM | 10300 nM | 
COc1ccc(N(C)C(=O)[C@H](Cc2ccccc2)NC(=O)NS(=O)(=O)NCc2ccccc2)cc1 [JB-56] | > 100000 nM | 1870 nM | 
CCOc1ccc(N(CC)C(=O)[C@H](Cc2ccccc2)NC(=O)NS(=O)(=O)n2ccc3ccccc32)cc1 [JB-75] | > 33300 nM | 70 nM | 
CN(C(=O)[C@H](Cc1cc(F)cc(F)c1)NC(=O)NS(=O)(=O)N1CCc2c(Cl)ccnc21)c1ccc2scnc2c1 [BB-8] | 82400 nM | 440 nM | 
